From ChEMBL document CHEMBL5532655, “Discovery of (R)-4-(8-methoxy-2-methyl-1-(1-phenylethy)-1H-imidazo[4,5-c]quinnolin-7-yl)-3,5-dimethylisoxazole as a potent and selective BET inhibitor for treatment of acute myeloid leukemia (AML) guided by FEP calculation” (Eur J Med Chem, 2024)
pIC50: −log10 of the molar value.

Key:
MV4-11 [1] = experiment: Induction of apoptosis in human MV4-11 cells assessed as early apoptotic cells at 10 uM incubated for 24 hrs by annexin V-FITC/PI staining based flow cytometric analysis (reference value: 0%); format: functional
MV4-11 [2] = experiment: Induction of cell cycle arrest in human MV4-11 cells assessed as accumulation of cells at G2/M phase at 5 uM incubated for 24 hrs by propidium iodide staining flow cytometric analysis (reference value: 51.43 %); format: functional
MV4-11 [3] = experiment: Induction of cell cycle arrest in human MV4-11 cells assessed as accumulation of cells at G0/G1 phase at 5 uM incubated for 24 hrs by propidium iodide staining flow cytometric analysis (reference value: 34.97 %); format: functional
MV4-11 [4] = experiment: Induction of apoptosis in human MV4-11 cells assessed as viable cells at 10 uM incubated for 24 hrs by annexin V-FITC/PI staining based flow cytometric analysis (reference value: 97%); format: functional
MM1.S = experiment: cells; conditions: Homo sapiens, 48 h
Description: Antiproliferative activity against human MM1.S cells assessed as inhibition of cell growth incubated for 48 hrs by MTT assay

MV4-11 [5] = experiment: Induction of cell cycle arrest in human MV4-11 cells assessed as accumulation of cells at S phase at 0.625 uM incubated for 24 hrs by propidium iodide staining flow cytometric analysis (reference value: 13.08 %); format: functional
MV4-11 [6] = experiment: Induction of apoptosis in human MV4-11 cells assessed as early apoptotic cells at 1.25 uM incubated for 24 hrs by annexin V-FITC/PI staining based flow cytometric analysis (reference value: 0%); format: functional
MV4-11 [7] = experiment: Induction of cell cycle arrest in human MV4-11 cells assessed as accumulation of cells at G0/G1 phase at 2.5 uM incubated for 24 hrs by propidium iodide staining flow cytometric analysis (reference value: 34.97 %); format: functional
MV4-11 [8] = experiment: Induction of apoptosis in human MV4-11 cells assessed as viable cells at 5 uM incubated for 24 hrs by annexin V-FITC/PI staining based flow cytometric analysis (reference value: 97%); format: functional
MV4-11 [9] = experiment: Induction of apoptosis in human MV4-11 cells assessed as viable cells at 1.25 uM incubated for 24 hrs by annexin V-FITC/PI staining based flow cytometric analysis (reference value: 97%); format: functional
MOLM-13 = experiment: cells; conditions: Homo sapiens, MOLM-13, 48 h
Description: Antiproliferative activity against human MOLM-13 cells assessed as inhibition of cell growth incubated for 48 hrs by MTT assay

MV4-11 [10] = experiment: cells; conditions: Homo sapiens, MV4-11, 48 h
Description: Antiproliferative activity against human MV4-11 cells assessed as inhibition of cell growth incubated for 48 hrs by MTT assay

Jurkat = experiment: cells; conditions: Homo sapiens, 48 h
Description: Antiproliferative activity against human Jurkat cells assessed as inhibition of cell growth incubated for 48 hrs by MTT assay

MV4-11 [11] = experiment: Induction of apoptosis in human MV4-11 cells assessed as late apoptotic cells at 0.625 uM incubated for 24 hrs by annexin V-FITC/PI staining based flow cytometric analysis (reference value: 0.04 %); format: functional
MV4-11 [12] = experiment: Induction of apoptosis in human MV4-11 cells assessed as necrotic cells at 10 uM incubated for 24 hrs by annexin V-FITC/PI staining based flow cytometric analysis (reference value: 2.35 %); format: functional
Homo sapiens [13] = organism: Homo sapiens; conditions: time 30.0 min
MV4-11 [14] = experiment: Induction of cell cycle arrest in human MV4-11 cells assessed as accumulation of cells at S phase at 0.3125 uM incubated for 24 hrs by propidium iodide staining flow cytometric analysis (reference value: 13.08 %); format: functional
MV4-11 [15] = experiment: Induction of apoptosis in human MV4-11 cells assessed as necrotic cells at 2.5 uM incubated for 24 hrs by annexin V-FITC/PI staining based flow cytometric analysis (reference value: 2.35 %); format: functional
MV4-11 [16] = experiment: Induction of apoptosis in human MV4-11 cells assessed as viable cells at 2.5 uM incubated for 24 hrs by annexin V-FITC/PI staining based flow cytometric analysis (reference value: 97%); format: functional
MV4-11 [17] = experiment: Induction of cell cycle arrest in human MV4-11 cells assessed as accumulation of cells at G2/M phase at 1.25 uM incubated for 24 hrs by propidium iodide staining flow cytometric analysis (reference value: 51.43 %); format: functional
MV4-11 [18] = experiment: Induction of apoptosis in human MV4-11 cells assessed as early apoptotic cells at 2.5 uM incubated for 24 hrs by annexin V-FITC/PI staining based flow cytometric analysis (reference value: 0%); format: functional
MV4-11 [19] = experiment: Induction of apoptosis in human MV4-11 cells assessed as necrotic cells at 1.25 uM incubated for 24 hrs by annexin V-FITC/PI staining based flow cytometric analysis (reference value: 2.35 %); format: functional
MV4-11 [20] = experiment: Induction of cell cycle arrest in human MV4-11 cells assessed as accumulation of cells at G2/M phase at 0.625 uM incubated for 24 hrs by propidium iodide staining flow cytometric analysis (reference value: 51.43 %); format: functional
Homo sapiens [21] = organism: Homo sapiens; conditions: time 30.0 min; remark: listed apart in the source
MV4-11 [22] = experiment: Induction of apoptosis in human MV4-11 cells assessed as late apoptotic cells at 10 uM incubated for 24 hrs by annexin V-FITC/PI staining based flow cytometric analysis (reference value: 0.04 %); format: functional
MV4-11 [23] = experiment: Induction of apoptosis in human MV4-11 cells assessed as late apoptotic cells at 1.25 uM incubated for 24 hrs by annexin V-FITC/PI staining based flow cytometric analysis (reference value: 0.04 %); format: functional
MV4-11 [24] = experiment: Induction of cell cycle arrest in human MV4-11 cells assessed as accumulation of cells at G2/M phase at 2.5 uM incubated for 24 hrs by propidium iodide staining flow cytometric analysis (reference value: 51.43 %); format: functional
Homo sapiens [25] = organism: Homo sapiens; conditions: time 30.0 min; remark: listed apart in the source
MV4-11 [26] = experiment: Induction of apoptosis in human MV4-11 cells assessed as necrotic cells at 0.625 uM incubated for 24 hrs by annexin V-FITC/PI staining based flow cytometric analysis (reference value: 2.35 %); format: functional
MV4-11 [27] = experiment: Induction of cell cycle arrest in human MV4-11 cells assessed as accumulation of cells at G2/M phase at 0.3125 uM incubated for 24 hrs by propidium iodide staining flow cytometric analysis (reference value: 51.43 %); format: functional
MV4-11 [28] = experiment: Induction of apoptosis in human MV4-11 cells assessed as late apoptotic cells at 5 uM incubated for 24 hrs by annexin V-FITC/PI staining based flow cytometric analysis (reference value: 0.04 %); format: functional
MV4-11 [29] = experiment: Induction of cell cycle arrest in human MV4-11 cells assessed as accumulation of cells at S phase at 2.5 uM incubated for 24 hrs by propidium iodide staining flow cytometric analysis (reference value: 13.08 %); format: functional
MV4-11 [30] = experiment: Induction of apoptosis in human MV4-11 cells assessed as necrotic cells at 5 uM incubated for 24 hrs by annexin V-FITC/PI staining based flow cytometric analysis (reference value: 2.35 %); format: functional
MV4-11 [31] = experiment: Induction of apoptosis in human MV4-11 cells assessed as late apoptotic cells at 2.5 uM incubated for 24 hrs by annexin V-FITC/PI staining based flow cytometric analysis (reference value: 0.04 %); format: functional
MV4-11 [32] = experiment: Induction of cell cycle arrest in human MV4-11 cells assessed as accumulation of cells at G0/G1 phase at 0.625 uM incubated for 24 hrs by propidium iodide staining flow cytometric analysis (reference value: 34.97 %); format: functional
MV4-11 [33] = experiment: Antitumor activity against human MV4-11 cells xenografted in BALB/c mouse assessed as tumor growth inhibition relative to control; format: functional
MV4-11 [34] = experiment: Induction of apoptosis in human MV4-11 cells assessed as early apoptotic cells at 5 uM incubated for 24 hrs by annexin V-FITC/PI staining based flow cytometric analysis (reference value: 0%); format: functional
MV4-11 [35] = experiment: Induction of cell cycle arrest in human MV4-11 cells assessed as accumulation of cells at G0/G1 phase at 0.3125 uM incubated for 24 hrs by propidium iodide staining flow cytometric analysis (reference value: 34.97 %); format: functional
MV4-11 [36] = experiment: Induction of apoptosis in human MV4-11 cells assessed as early apoptotic cells at 0.625 uM incubated for 24 hrs by annexin V-FITC/PI staining based flow cytometric analysis (reference value: 0%); format: functional
MV4-11 [37] = experiment: Induction of cell cycle arrest in human MV4-11 cells assessed as accumulation of cells at S phase at 1.25 uM incubated for 24 hrs by propidium iodide staining flow cytometric analysis (reference value: 13.08 %); format: functional
MV4-11 [38] = experiment: Induction of cell cycle arrest in human MV4-11 cells assessed as accumulation of cells at G0/G1 phase at 1.25 uM incubated for 24 hrs by propidium iodide staining flow cytometric analysis (reference value: 34.97 %); format: functional
MV4-11 [39] = experiment: Induction of apoptosis in human MV4-11 cells assessed as viable cells at 0.625 uM incubated for 24 hrs by annexin V-FITC/PI staining based flow cytometric analysis (reference value: 97%); format: functional
MV4-11 [40] = experiment: Induction of cell cycle arrest in human MV4-11 cells assessed as accumulation of cells at S phase at 5 uM incubated for 24 hrs by propidium iodide staining flow cytometric analysis (reference value: 13.08 %); format: functional

Cc1sc2c(c1C)C(c1ccc(Cl)cc1)=N[C@@H](CC(=O)OC(C)(C)C)c1nnc(C)n1-2 showed an Activity (MV4-11 [1]) of 8.62%, an Activity (MV4-11 [2]) of 11.71% and an Activity (MV4-11 [3]) of 64.98%. For the same compound, the Activity (MV4-11 [4]) was 67.33%, the pIC50 (MM1.S) was 5.55 and the Activity (MV4-11 [5]) was 40.75%. For the same compound, the Activity (MV4-11 [6]) was 6.52%, the Activity (MV4-11 [7]) was 65.43% and the Activity (MV4-11 [8]) was 68.49%. The Activity (MV4-11 [9]) was 80.78%, the pIC50 (MOLM-13) was 5.76 and the pIC50 (MV4-11 [10]) was 5.89. It also gave a pIC50 (Jurkat) of 4.79, an Activity (MV4-11 [11]) of 4.15% and an Activity (MV4-11 [12]) of 0.06%. The ΔTm (Homo sapiens [13]) was 0 °C, the Activity (MV4-11 [14]) was 40.75% and the Activity (MV4-11 [15]) was 0%. It also gave an Activity (MV4-11 [16]) of 88.78%, an Activity (MV4-11 [17]) of 18.1% and an Activity (MV4-11 [18]) of 7.22%. For the same compound, the Activity (MV4-11 [19]) was 0.03%, the Activity (MV4-11 [20]) was 11.65% and the ΔTm (Homo sapiens [21]) was 0 °C. It also gave an Activity (MV4-11 [22]) of 5.04%, an Activity (MV4-11 [23]) of 3.38% and an Activity (MV4-11 [24]) of 11%. The ΔTm (Homo sapiens [25]) was 0 °C, the Activity (MV4-11 [26]) was 0.03% and the Activity (MV4-11 [27]) was 11.65%. It also gave an Activity (MV4-11 [28]) of 4.68%, an Activity (MV4-11 [29]) of 23.24% and an Activity (MV4-11 [30]) of 0%. For the same compound, the Activity (MV4-11 [31]) was 4.03%, the Activity (MV4-11 [32]) was 46.96% and the TGI (MV4-11 [33]) was 52.82%. For the same compound, the Activity (MV4-11 [34]) was 6.72%, the Activity (MV4-11 [35]) was 46.96% and the Activity (MV4-11 [36]) was 6.12%. The Activity (MV4-11 [37]) was 19.09%, the Activity (MV4-11 [38]) was 62.73% and the Activity (MV4-11 [39]) was 80.59%. For the same compound, the Activity (MV4-11 [40]) was 22.85%.
